Laboratory results reported in patent US11835503B2, “TMA-formation inhibitor treatment for elevated TMA-containing compound diseases” (The Cleveland Clinic Foundation, priority 2009, dated 2023).

How the values were obtained:
intestinal microflora [1] = experiment: D3-carnitine gavage in mice, plasma D3-TMA and D3-TMANO by stable isotope dilution LC/MS/MS; type: in vivo; conditions: gavage at t=0, plasma
Description: In additional work, mice were gavaged with D3-carnitine and the time dependent appearance of D3-TMA and TMANO were quantified in plasma. Where indicated in FIG. 8, mice were pretreated for 3 weeks with a broad spectrum antibiotic cocktail to suppress intestinal microflora. […] Plasma levels of the deuterium (D3) labeled metabolites of D3-carnitine, D3-TMA and D3-TMANO, were quantified in plasma by stable isotope dilution LC/MS/MS analysis. D3-Carnitine was given by gavage feeding to mice at t=0. Results are shown in FIG. 8, with TMA production shown in FIG. 8B and TMANO production in FIG. 8C.

intestinal microflora [2] = experiment: D3-carnitine gavage in mice, plasma D3-crotonobetaine and D3-gamma-butyrobetaine by LC/MS/MS; type: in vivo
Description: In further work, mice were gavaged with D3-carnitine and the time dependent appearance of D3-crotonobetaine and gamma butyrobetaine were quantified in plasma. Where indicated in FIG. 9, mice were pretreated for 3 weeks with a broad spectrum antibiotic cocktail to suppress intestinal microflora. […] D3-crotonobetaine and D3-gamma-butyrobetaine were quantified in plasma by LC/MS/MS analysis isolated at the indicated times following D3-carnitine gavage feeding. Results are shown in FIG. 9, with crotonbetaine production shown in FIG. 9A, and gamma-butyrobetain production shown in FIG. 9B.

intestinal flora = experiment: oral d9-(trimethyl)-PC challenge in subjects, time course of plasma d9-TMA by LC/MS/MS; type: in vivo, humans; conditions: human subjects, 250 mg oral
Description: TMA is detected in plasma. While TMA is a gas at room and body temperature, if one acidifies the plasma, and the sample flash frozen and analyzed immediately upon thaw, one can measure the TMA cation by mass spectrometry.
Subjects were given 250 mg of d9-(trimethyl)-PC, and then time course of d9-TMA in plasma quantified. […] Plasma TMA was quantified by LC/MS/MS of samples immediately after blood draw, acidification of the plasma with 10 mM HCl to lower TMA vapor pressure, and snap freezing in liquid nitrogen and storage at −80 C until time of analysis.

Compound | metabolites of D3-carnitine appearing in plasma (D3-TMA, D3-TMANO) (intestinal microflora [1]) | metabolites of D3-carnitine appearing in plasma (D3-crotonobetaine, D3-gamma-butyrobetaine) (intestinal microflora [2]) | time at which plasma d9-TMA levels increased after the PC challenge (intestinal flora) [h]
[2H]C([2H])([2H])[N+](C)(C)CC(O)CC(=O)[O-] (stereo not drawn) [D3-carnitine] | both TMA and TMANO are generated as a metabolite of carnitine ingestion | both compounds are generated as a metabolite of carnitine ingestion | –
d9-(trimethyl)-PC | – | – | 4 to 8
